In ChEMBL document CHEMBL1128408, “Further evidence supporting the importance of and the restrictions on a carbon-centered radical for high antimalarial activity of 1,2,4-trioxanes like artemisinin” (J Med Chem, 1995):
Values after ≈ are worked out from the molar mass of the structure shown.

System: Plasmodium falciparum
Assay: In vitro inhibitory activity against Chloroquine-sensitive Plasmodium falciparum NF54 as [3H]hypoxanthine incorporation
Format: functional, organism-based
[1] = Plasmodium falciparum, read-out: IC50

SMILES | IC50 [1] [µg/mL] | IC50 [µg/mL]
CO[C@H]1O[C@]2(C)OO[C@]13[C@H](CCO)CCC[C@@H]3C[C@@H]2Cc1ccccc1 | 0.6 (≈ 1.66 µM) | 
C[C@@H]1CC[C@H]2[C@@H](C)C(=O)O[C@@H]3O[C@@]4(C)CC[C@@H]1[C@]32OO4 [ARTEMISININ] | 0.003 (≈ 0.0106 µM) | 
CO[C@H]1O[C@]2(C)OO[C@]13[C@H](CCO)CCC[C@@H]3C[C@H]2C | 0.0022 (≈ 0.00768 µM) | 
CO[C@H]1O[C@]2(C)OO[C@]13CCCC[C@@H]3C[C@H]2Cc1ccccc1 | 0.098 (≈ 0.308 µM) | 
CO[C@H]1O[C@]2(C)OO[C@]13[C@H](CCO)CCC[C@@H]3C[C@@H]2C | 0.36 (≈ 1.26 µM) | 
CO[C@H]1O[C@@]2(C)CC[C@H]3CCC[C@@H](CCO)[C@]31OO2 | 0.034 (≈ 0.125 µM) | 0.034 (≈ 0.125 µM)
CO[C@H]1O[C@]2(C)OO[C@]13CCCC[C@@H]3C[C@H]2c1ccccc1 | 0.61 (≈ 2 µM) | 
CO[C@H]1O[C@]2(C)OO[C@]13[C@H](CCO)CCC[C@@H]3C[C@H]2C[Si](C)(C)C | 0.086 (≈ 0.24 µM) | 
CO[C@H]1O[C@]2(C)OO[C@]13[C@H](CCO)CCC[C@@H]3C[C@@H]2C[Si](C)(C)C | > 1 | 
CO[C@H]1O[C@@]2(C)CC[C@H]3CCCC[C@]31OO2 | 0.22 (≈ 0.964 µM) | 
CO[C@H]1O[C@]2(C)OO[C@]13[C@H](CCO)CCC[C@@H]3C[C@H]2Cc1ccccc1 | 0.003 (≈ 0.00828 µM) | 
